Experimental findings from PubChem BioAssay (NCI) are described below.

Each structure is given as a SMILES string. Several values for one entry are separate records, joined by “and”; a condition that tells them apart may be missing. Equal entries are not always repeated.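 These data come from cells grown in 96-well plates and exposed to compound for 48 hours at five concentrations. GI50: concentration for 50% inhibition of growth. TGI marks complete inhibition of growth.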

Among the test systems are IGROV1 ovarian; EKVX NSCLC; U251 CNS; KM12 colon; NCI-H522 lung; HOP-92 NSCLC; NCI-H23 lung; OVCAR-3 ovarian; HT29 colon; OVCAR-5 ovarian.
Common to all, as to experiment: NCI tumour cell line growth inhibition, 48 h

Turning to `Nc1c(S(=O)(=O)O)cc2c(c1Cl)C(=O)c1ccccc1C2=O`, the GI50 with IGROV1 ovarian, in the assay on EKVX NSCLC, in the assay with U251 CNS, with KM12 colon, with NCI-H522 lung and in the assay with HOP-92 NSCLC was over 100 µM in each case. Also, the GI50 in the assay on NCI-H23 lung, in the assay on OVCAR-3 ovarian, in the assay with HT29 colon and with OVCAR-5 ovarian was over 100 µM in each case. The TGI in the assay on IGROV1 ovarian, in the assay with EKVX NSCLC, with U251 CNS, in the assay with KM12 colon, with NCI-H522 lung and in the assay with HOP-92 NSCLC was over 100 µM throughout. The TGI in the assay with NCI-H23 lung, in the assay with OVCAR-3 ovarian, in the assay on HT29 colon and in the assay on OVCAR-5 ovarian was over 100 µM each time.
As for `COc1cc(-c2cc(C(=O)N3CCN(C(=O)c4ccccc4NCc4cccs4)CC3)nc3cc(-c4ccccc4)nn23)cc(OC)c1OC`, the GI50 with IGROV1 ovarian is 13.9 µM; in the assay with EKVX NSCLC, 53.9 µM; in the assay with U251 CNS, 5.76 µM; with KM12 colon, 3.16 µM; with NCI-H522 lung, 1.67 µM; with HOP-92 NSCLC it was 2.41 µM. For the same molecule, the GI50 in the assay on NCI-H23 lung was 15.7 µM; with OVCAR-3 ovarian, 3.03 µM; with HT29 colon, 3.78 µM; with OVCAR-5 ovarian, 15.1 µM. The TGI in the assay with IGROV1 ovarian was over 100 µM; with EKVX NSCLC, over 100 µM; with U251 CNS, over 100 µM; in the assay on KM12 colon, over 100 µM; with NCI-H522 lung it was 4.68 µM; in the assay with HOP-92 NSCLC, 9.22 µM. The TGI is over 100 µM in the assay on NCI-H23 lung, 11.3 µM with OVCAR-3 ovarian, 15 µM in the assay on HT29 colon and over 100 µM in the assay on OVCAR-5 ovarian.
For the molecule `O=C(Nc1ccc(-n2cc(-c3ccncc3)c(-c3ccc(Cl)c(O)c3)n2)cc1)c1ccc(Cl)c(C(F)(F)F)c1`, the GI50 is 3.11 µM in the assay with IGROV1 ovarian; 4.65 µM in the assay on EKVX NSCLC; 0.895 µM in the assay on U251 CNS; 0.451 µM in the assay on KM12 colon; 1.14 µM with NCI-H522 lung; 1.99 µM in the assay on HOP-92 NSCLC. In addition, the GI50 in the assay on NCI-H23 lung was 1.72 µM; in the assay on OVCAR-3 ovarian, 2.03 µM; with HT29 colon, 0.838 µM; in the assay with OVCAR-5 ovarian it was 5.25 µM. The TGI in the assay on IGROV1 ovarian is over 28.4 µM; in the assay on EKVX NSCLC it was over 25 µM; with U251 CNS, 2.91 µM; in the assay with KM12 colon, 2.88 µM; in the assay with NCI-H522 lung, 4.04 µM; in the assay with HOP-92 NSCLC, 5.87 µM. For the same molecule, the TGI in the assay on NCI-H23 lung worked out at 5.08 µM; in the assay with OVCAR-3 ovarian, 6.24 µM; with HT29 colon, 3.05 µM; in the assay on OVCAR-5 ovarian, 29.4 µM.
Take `COc1ccc2nc3c(cc2c1)C(=O)CC(C(F)(F)F)C3` (configuration not stated): the GI50 with IGROV1 ovarian is 0.792 µM; with EKVX NSCLC, 4.46 µM; in the assay with U251 CNS, 5.82 µM; in the assay with KM12 colon, 0.351 µM; in the assay on NCI-H522 lung it was 0.49 µM; in the assay on HOP-92 NSCLC, 2.8 µM. In addition, the GI50 in the assay on NCI-H23 lung was 5.39 µM; in the assay with OVCAR-3 ovarian it was 1.65 µM; in the assay with HT29 colon, 0.433 µM; with OVCAR-5 ovarian, 5.56 µM. Besides, the TGI is over 100 µM in the assay on IGROV1 ovarian; over 100 µM with EKVX NSCLC; over 100 µM with U251 CNS; over 100 µM in the assay on KM12 colon; over 100 µM with NCI-H522 lung; 94.2 µM in the assay on HOP-92 NSCLC. Besides, the TGI is over 100 µM in the assay with NCI-H23 lung, 6.89 µM in the assay with OVCAR-3 ovarian, over 100 µM in the assay with HT29 colon and over 100 µM in the assay on OVCAR-5 ovarian.
For the molecule `OC1OC2COC(c3ccccc3)OC2C(O)C1O` (configuration not stated), the TGI with IGROV1 ovarian, with EKVX NSCLC, with U251 CNS, in the assay on KM12 colon, in the assay with NCI-H522 lung and in the assay with HOP-92 NSCLC was over 100 µM in each case. For the same molecule, the TGI with NCI-H23 lung, in the assay with OVCAR-3 ovarian, in the assay with HT29 colon and with OVCAR-5 ovarian was over 100 µM throughout.
`COc1ccc(S(=O)(=O)Nc2c(/C=C\c3cc(OC)c(OC)c(OC)c3)ccc(OC)c2O)cc1OC`: the GI50 in the assay with IGROV1 ovarian is 0.358 µM; in the assay with EKVX NSCLC, 0.452 µM; with U251 CNS, 0.365 µM; in the assay on KM12 colon, 0.091 µM; in the assay on NCI-H522 lung, 0.0776 µM; in the assay with HOP-92 NSCLC it was 0.0801 µM. The GI50 in the assay on NCI-H23 lung was 0.318 µM; in the assay with OVCAR-3 ovarian it was 0.21 µM; in the assay with HT29 colon, 0.498 µM; in the assay with OVCAR-5 ovarian, 0.751 µM. Moreover, the TGI in the assay with IGROV1 ovarian, in the assay with EKVX NSCLC, in the assay on U251 CNS, with KM12 colon, in the assay on NCI-H522 lung and in the assay with HOP-92 NSCLC was over 100 µM each time. Further, the TGI with NCI-H23 lung, with HT29 colon and in the assay with OVCAR-5 ovarian was over 100 µM in each case.
In the case of `CC(=O)SC(C[N+](=O)[O-])c1ccccc1` (configuration not stated), the TGI in the assay on IGROV1 ovarian was 5.02 µM; in the assay on EKVX NSCLC, 16 µM; in the assay with U251 CNS, 13.1 µM; in the assay on KM12 colon it was 22.6 µM; in the assay on NCI-H522 lung it was 31 µM; in the assay on HOP-92 NSCLC it was 30.4 µM. Also, the TGI in the assay with NCI-H23 lung amounted to 38.3 µM; with OVCAR-3 ovarian, 20.7 µM; with HT29 colon, 4.22 µM; in the assay with OVCAR-5 ovarian, 9.11 µM.
Turning to `N[C@@H](Cc1ccc(N(CCCl)CCCl)cc1)C(=O)O`, the GI50 is 15.2 µM and 20.3 µM and 48.6 µM with IGROV1 ovarian; 51.3 µM and 37.5 µM and 52 µM in the assay on EKVX NSCLC; 16.1 µM and 11.9 µM with U251 CNS; 83.9 µM and 42.7 µM in the assay on KM12 colon; 14.4 µM in the assay with NCI-H522 lung; 11.9 µM and 15 µM in the assay with HOP-92 NSCLC. Besides, the GI50 with NCI-H23 lung was 20.6 µM and 12.5 µM; in the assay on OVCAR-3 ovarian, 22.5 µM and 10.4 µM; in the assay on HT29 colon it was 54.2 µM and 42.3 µM; in the assay on OVCAR-5 ovarian, 19.1 µM. Moreover, the TGI is 74.3 µM and 57.1 µM and 139 µM in the assay on IGROV1 ovarian; > 100 µM and 58.3 µM and 128 µM in the assay on EKVX NSCLC; > 100 µM and 31.7 µM and 121 µM with U251 CNS; > 100 µM and > 83.7 µM and 168 µM in the assay with KM12 colon; 29.5 µM and 66.8 µM with NCI-H522 lung; 52.3 µM and 42 µM and 103 µM with HOP-92 NSCLC. The TGI in the assay on NCI-H23 lung was > 100 µM and 45.5 µM and 84.7 µM; with OVCAR-3 ovarian, 55.3 µM and 26.3 µM and 105 µM; with HT29 colon, > 100 µM and 235 µM; with OVCAR-5 ovarian, > 100 µM and 64.7 µM and 140 µM.
With `Nc1c(-c2ccc(-c3c(N)[n+]([O-])c4ccccc4[n+]3[O-])cc2)[n+]([O-])c2ccccc2[n+]1[O-]`, the TGI in the assay with IGROV1 ovarian was 47.5 µM; in the assay on EKVX NSCLC, 79.9 µM; in the assay with U251 CNS it was 39.6 µM; in the assay on KM12 colon, 23.6 µM; in the assay on NCI-H522 lung, 3.65 µM; with HOP-92 NSCLC it was over 100 µM. The TGI was found to be 21.1 µM in the assay on NCI-H23 lung, 29.8 µM in the assay with OVCAR-3 ovarian, 27.1 µM in the assay with HT29 colon and 35.2 µM in the assay on OVCAR-5 ovarian.
For the molecule `COc1ccc(/C=N/C2=C(C#N)C(c3ccccc3)c3ccc4ccccc4c3O2)cc1` (configuration not stated), the GI50 with IGROV1 ovarian is 0.403 µM; in the assay on U251 CNS, 0.457 µM; with KM12 colon, 0.397 µM; with NCI-H522 lung, 0.128 µM; in the assay with HOP-92 NSCLC, 0.439 µM; in the assay with NCI-H23 lung, 0.469 µM. For the same molecule, the results for the GI50 with OVCAR-3 ovarian, in the assay on HT29 colon and in the assay on OVCAR-5 ovarian were 0.343 µM, 0.53 µM and 0.885 µM, respectively. Further, the TGI with IGROV1 ovarian was over 100 µM; in the assay on EKVX NSCLC, over 100 µM; with U251 CNS, over 100 µM; in the assay with KM12 colon it was over 100 µM; in the assay on NCI-H522 lung, 5.5 µM; in the assay on HOP-92 NSCLC, over 44 µM. Besides, the TGI in the assay with NCI-H23 lung, in the assay on OVCAR-3 ovarian, in the assay with HT29 colon and with OVCAR-5 ovarian was over 100 µM each time.
In the case of `O=c1c(Br)ccc(Br)cc1Br`, the GI50 was 2.4 µM in the assay on IGROV1 ovarian; 1.71 µM in the assay on EKVX NSCLC; 1.84 µM in the assay on U251 CNS; 2.64 µM in the assay on KM12 colon; 0.17 µM in the assay on NCI-H522 lung; 1.53 µM in the assay on HOP-92 NSCLC. Further, the GI50 in the assay with NCI-H23 lung is 1.72 µM; in the assay on OVCAR-3 ovarian it was 0.926 µM; in the assay with HT29 colon, 1.77 µM; with OVCAR-5 ovarian it was 1.76 µM. In addition, the TGI worked out at 5.64 µM in the assay with IGROV1 ovarian; 3.39 µM in the assay with EKVX NSCLC; 3.34 µM with U251 CNS; 6.36 µM in the assay with KM12 colon; 0.364 µM in the assay on NCI-H522 lung; 3.05 µM in the assay with HOP-92 NSCLC. The TGI in the assay on NCI-H23 lung stood at 3.66 µM; in the assay with OVCAR-3 ovarian, 2.18 µM; in the assay with HT29 colon it was 4.45 µM; with OVCAR-5 ovarian, 3.46 µM.
As to `COc1ccc(-c2nn(C(=O)c3cc(OC)c(OC)c(OC)c3)c3cc(N)ccc23)cc1`, the GI50 in the assay on IGROV1 ovarian was 0.0207 µM; with EKVX NSCLC, under 0.0187 µM; in the assay with U251 CNS it was under 0.01 µM; with KM12 colon, under 0.01 µM; in the assay with NCI-H522 lung it was under 0.01 µM; in the assay with HOP-92 NSCLC, 1.86 µM. Also, the GI50 with NCI-H23 lung is 0.0292 µM; in the assay on OVCAR-3 ovarian, under 0.01 µM; in the assay on HT29 colon it was under 0.0142 µM; with OVCAR-5 ovarian, 1.54 µM. In addition, the TGI turned out to be 15.9 µM in the assay with IGROV1 ovarian; 51.3 µM in the assay with EKVX NSCLC; 1.87 µM with U251 CNS; 1.83 µM in the assay on KM12 colon; 1.12 µM with NCI-H522 lung; 25.8 µM in the assay on HOP-92 NSCLC. The TGI with NCI-H23 lung came out at 15.7 µM; in the assay with HT29 colon it was 1.13 µM; in the assay with OVCAR-5 ovarian it was 27.3 µM.
As for `NCCCSCC(=O)O`, the TGI with IGROV1 ovarian, in the assay on EKVX NSCLC, in the assay on U251 CNS, in the assay with KM12 colon, with NCI-H522 lung and in the assay on HOP-92 NSCLC was over 100 µM in each case. The TGI in the assay on NCI-H23 lung, with OVCAR-3 ovarian, in the assay on HT29 colon and in the assay on OVCAR-5 ovarian was over 100 µM each time.
